Laboratory results from EP2669276A1 (Université de Strasbourg, priority 2012, dated 2013).

Assays:
[1] = target: T1, hNPFF1 (Homo sapiens, UniProt Q9GZQ6); assay: Receptor binding assay with [3H]-FFRFamide on CHO cell membranes expressing SF-hNPFFR1; settings: for inhibition at 0.5 µM / inhibition at 5 µM / Ki: [3H]-FFRF-NH2 radioligand, mean of at least two experiments; for Ki: read-out: Ki NPFF1
T1 construct: The cDNA encoding the full-length human NPFFR1 and human NPFFR2; expressed in transfected cells
Description: (§1) The cDNA encoding the full-length human NPFFR1 and human NPFFR2 were subcloned into the pcDNA3 expression vector (Invitrogen, Cergy Pontoise, France) using standard molecular biology methods. A sequence encoding a signal sequence and a Flag epitope was fused to the 5' coding sequence of both hNPFFR1 and hNPFFR2 cDNA according to (Guan et al., 1992) resulting in a SF-hNPFFR1 and SF-hNPFFR2 constructs. These contructs were stably transfected into CHO cells.
(§2) Membranes from CHO cells stably expressing SF-hNPFFR1 or SF-hNPFFR2 were prepared as described (Becker et al., 1999). SF-hNPFFR1 or SF-hNPFFR2 membranes (10µg) were incubated for 30 min at 25 °C in a final volume of 0.5 ml containing 50 mM HEPES pH 7.4, 1 mM CaCl2, 1 mM MgCl2, 0.1% bovine serum albumin, 10 nM and 3 nM [^3H]-FFRFamide (CEA, Paris; specific activity, 13,6 Ci/mmol) for […], respectively and the ligands to be tested. Non-specific binding was determined in presence of 1 µM neuropeptide FF for SF-hNPFFR2 and 1 µM neuropeptide VF for SF -hNPFFR1. Typical total and nonspecific binding were 1200 and 200 dpm, respectively for SF-hNPFFR1 and SF-hNPFFR2. Incubation mixtures were rapidly filtered and washed with 50 mM HEPES pH 7.4, 1 mM CaCl2, 1 mM MgCl2, on 96 wells GF/B unifilter (Perkin Elmer). Unifilter plates where then dryied for 1hr at 65°C. Bound radioactivity was determined by scintillation counting with 30 µl of scintillation cocktail (O-scint, Perkin Elmer) per well on a Topcount scintillation apparatus (Perkin Elmer).

[2] = target: T2, hNPFF2 (Homo sapiens, UniProt Q9Y5X5); assay: Receptor binding assay with [3H]-FFRFamide on CHO cell membranes expressing SF-hNPFFR2; settings: for inhibition at 0.5 µM / inhibition at 5 µM / Ki: [3H]-FFRF-NH2 radioligand, mean of at least two experiments; for Ki: read-out: Ki NPFF2
T2 construct: The cDNA encoding the full-length human NPFFR1 and human NPFFR2; expressed in transfected cells
Description: as §1, §2

T1 sequence (Q9GZQ6 whole entry): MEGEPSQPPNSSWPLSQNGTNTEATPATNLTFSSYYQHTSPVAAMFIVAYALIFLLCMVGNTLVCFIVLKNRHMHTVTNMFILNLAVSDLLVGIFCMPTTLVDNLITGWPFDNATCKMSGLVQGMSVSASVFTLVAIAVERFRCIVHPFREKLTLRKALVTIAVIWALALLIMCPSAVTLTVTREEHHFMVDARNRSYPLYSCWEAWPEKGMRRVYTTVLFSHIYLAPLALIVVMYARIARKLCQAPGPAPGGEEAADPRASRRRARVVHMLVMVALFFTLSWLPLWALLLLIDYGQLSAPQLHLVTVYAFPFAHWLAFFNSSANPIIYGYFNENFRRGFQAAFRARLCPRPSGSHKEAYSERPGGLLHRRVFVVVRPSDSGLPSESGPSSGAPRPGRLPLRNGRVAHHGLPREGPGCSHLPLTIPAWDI
T2 sequence (Q9Y5X5 whole entry): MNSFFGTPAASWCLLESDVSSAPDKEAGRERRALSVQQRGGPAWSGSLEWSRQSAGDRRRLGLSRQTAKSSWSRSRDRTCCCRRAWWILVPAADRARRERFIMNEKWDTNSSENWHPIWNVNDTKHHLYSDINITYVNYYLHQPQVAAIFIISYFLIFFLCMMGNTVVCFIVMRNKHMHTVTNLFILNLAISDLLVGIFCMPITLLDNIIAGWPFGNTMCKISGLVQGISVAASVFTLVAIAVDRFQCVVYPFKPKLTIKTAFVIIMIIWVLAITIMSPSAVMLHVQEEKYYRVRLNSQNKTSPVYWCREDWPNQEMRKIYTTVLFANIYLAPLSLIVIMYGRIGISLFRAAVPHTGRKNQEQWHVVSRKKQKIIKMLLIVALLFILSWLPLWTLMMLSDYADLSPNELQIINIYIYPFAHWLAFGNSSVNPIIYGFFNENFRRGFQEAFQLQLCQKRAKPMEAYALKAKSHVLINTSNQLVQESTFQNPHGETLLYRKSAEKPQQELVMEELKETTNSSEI

O=C(N[C@H](CCCN1CCc2ccccc2C1)C(=O)NCCc1ccccc1)c1ccccc1-c1ccccc1 [Compound 25, (2R)-N-(2-phenylethyl)-2-[(2-phenylphenyl)formamido]-5-(1,2,3,4-tetrahydroisoquinolin-2-yl)pentanamide]
inhibition at 0.5 µM [1]: 14 ± 1%
inhibition at 5 µM [1]: 51 ± 14%
inhibition at 0.5 µM [2]: 0%
inhibition at 5 µM [2]: 16 ± 5%

O=C(N[C@H](CCCN1CCCCC1)C(=O)NCCc1ccccc1)c1ccccc1-c1ccccc1 [Compound 27, (2R)-N-(2-phenylethyl)-2-[(2-phenylphenyl)formamido]-5-(piperidin-1-yl)pentanamide]
Ki [1]: 179 ± 64 nM
inhibition at 0.5 µM [2]: 0%
inhibition at 5 µM [2]: 13 ± 8%

O=C(N[C@@H](CCCN1CCCCC1)C(=O)NCCCc1ccccc1)c1ccccc1-c1ccccc1 [Compound 28, (2S)-2-[(2-phenylphenyl)formamido]-N-(3-phenylpropyl)-5-(piperidin-1-yl)pentanamide]
inhibition at 0.5 µM [1]: 16 ± 25%
inhibition at 5 µM [1]: 41 ± 2%
inhibition at 0.5 µM [2]: 0%
inhibition at 5 µM [2]: 17%

COc1ccc(-c2ccccc2C(=O)N[C@@H](CCCN2CCCCC2)C(=O)NCCCc2ccccc2)cc1 [Compound 29, (2S)-2-{[2-(4-methoxyphenyl)phenyl]formamido}-N-(3-phenylpropyl)-5-(piperidin-1-yl)pentanamide]
Ki [1]: 170 ± 70 nM
inhibition at 0.5 µM [2]: 0%
inhibition at 5 µM [2]: 23 ± 5%

COc1ccc(-c2ccccc2C(=O)N[C@@H](CCCN2CCCCCC2)C(=O)NCCCc2ccccc2)cc1 [Compound 30, (2S)-5-(azepan-1-yl)-2-{[2-(4-methoxyphenyl)phenyl]formamido}-N-(3-phenylpropyl)pentanamide]
Ki [1]: 64 ± 32 nM
Ki [2]: 76 ± 18 nM

O=C(N[C@@H](CCCN1CCC(c2ccccc2)CC1)C(=O)NCCc1ccccc1)c1ccccc1-c1ccccc1 [Compound 31, (2S)-N-(2-phenylethyl)-2-[(2-phenylphenyl)formamido]-5-(4-phenylpiperidin-1-yl)pentanamide]
Ki [1]: 485 ± 35 nM
inhibition at 0.5 µM [2]: 0%
inhibition at 5 µM [2]: 45 ± 7%

O=C(N[C@@H](CCCN1CCC(Cc2ccccc2)CC1)C(=O)NCCc1ccccc1)c1ccccc1-c1ccccc1 [Compound 32, (2S)-5-(4-benzylpiperidin-1-yl)-N-(2-phenylethyl)-2-[(2-phenylphenyl)formamido]pentanamide]
Ki [1]: 400 nM
Ki [2]: 34 nM

O=C(N[C@@H](CCCN1CCC(N2CCCCC2)CC1)C(=O)NCCc1ccccc1)c1ccccc1-c1ccccc1 [Compound 33, (2S)-N-(2-phenylethyl)-2-[(2-phenylphenyl)formamido]-5-[4-(piperidin-1-yl)piperidin-1-yl]pentanamide]
Ki [1]: 71 ± 11 nM
inhibition at 0.5 µM [2]: 13 ± 11%
inhibition at 5 µM [2]: 55 ± 15%

CN1CCN(CCC[C@H](NC(=O)c2ccccc2-c2ccccc2)C(=O)NCCc2ccccc2)CC1 [Compound 34, (2S)-5-(4-methylpiperazin-1-yl)-N-(2-phenylethyl)-2-[(2-phenylphenyl)formamido]pentanamide]
Ki [1]: 232 ± 17 nM
inhibition at 0.5 µM [2]: 0%
inhibition at 5 µM [2]: 12 ± 5%

CC(=O)N1CCN(CCC[C@H](NC(=O)c2ccccc2-c2ccccc2)C(=O)NCCc2ccccc2)CC1 [Compound 35, (2S)-5-(4-acetylpiperazin-1-yl)-N-(2-phenylethyl)-2-[(2-phenylphenyl)formamido]pentanamide]
Ki [1]: 319 ± 13 nM
inhibition at 0.5 µM [2]: 0%
inhibition at 5 µM [2]: 0%

O=C(N[C@@H](CCCN1CCOCC1)C(=O)NCCc1ccccc1)c1ccccc1-c1ccccc1 [Compound 36, (2S)-5-(morpholin-4-yl)-N-(2-phenylethyl)-2-[(2-phenylphenyl)formamido]pentanamide]
inhibition at 0.5 µM [1]: 10 ± 3%
inhibition at 5 µM [1]: 25 ± 10%
inhibition at 0.5 µM [2]: 2%
inhibition at 5 µM [2]: 25 ± 2%

O=C(N[C@@H](CCCN1CCC(N2C(=O)Cc3ccccc32)CC1)C(=O)NCCc1ccccc1)c1ccccc1-c1ccccc1 [Compound 37, (2S)-5-[4-(2-oxo-2,3-dihydro-1H-indol-1-yl)piperidin-1-yl]-N-(2-phenylethyl)-2-[(2-phenylphenyl)formamido]pentanamide]
inhibition at 0.5 µM [1]: 21 ± 6%
inhibition at 5 µM [1]: 42 ± 3%
inhibition at 0.5 µM [2]: 0%
inhibition at 5 µM [2]: 45%

CN(CCC[C@H](NC(=O)c1ccccc1-c1ccccc1)C(=O)NCCc1ccccc1)C1CCN(Cc2ccccc2)CC1 [Compound 38, (2S)-5-[(1-benzylpiperidin-4-yl)(methyl)amino]-N-(2-phenylethyl)-2-[(2-phenylphenyl)formamido]pentanamide]
Ki [1]: 85 ± 20 nM
Ki [2]: 40 ± 23 nM

O=C(N[C@@H](CCCN1CCN(C(=O)c2ccccc2)CC1)C(=O)NCCc1ccccc1)c1ccccc1-c1ccccc1 [Compound 39, (2S)-5-(4-benzoylpiperazin-1-yl)-N-(2-phenylethyl)-2-[(2-phenylphenyl)formamido]pentanamide]
Ki [1]: 187 ± 9 nM
inhibition at 0.5 µM [2]: 0%
inhibition at 5 µM [2]: 17%

O=C(N[C@@H](CCCN1CCC(Cc2ccccc2)CC1)C(=O)NCCc1ccccc1)c1ccccc1 [Compound 40, (2S)-5-(4-benzylpiperidin-1-yl)-N-(2-phenylethyl)-2-(phenylformamido)pentanamide]
inhibition at 0.5 µM [1]: 19 ± 3%
inhibition at 5 µM [1]: 32 ± 1%
inhibition at 0.5 µM [2]: 5 ± 3%
inhibition at 5 µM [2]: 19 ± 1%

O=C(N[C@@H](CCCN1CCC(Cc2ccccc2)CC1)C(=O)NCCc1ccccc1)c1ccccc1Cl [Compound 41, (2S)-5-(4-benzylpiperidin-1-yl)-2-[(2-chlorophenyl)formamido]-N-(2-phenylethyl)pentanamide]
inhibition at 0.5 µM [1]: 0%
inhibition at 5 µM [1]: 54 ± 3%
inhibition at 0.5 µM [2]: 0%
inhibition at 5 µM [2]: 41 ± 3%

O=C(N[C@@H](CCCN1CCC(Cc2ccccc2)CC1)C(=O)NCCc1ccccc1)c1ccc2ccccc2n1 [Compound 42, (2S)-5-(4-benzylpiperidin-1-yl)-N-(2-phenylethyl)-2-(quinolin-2-ylformamido)pentanamide]
inhibition at 0.5 µM [1]: 11 ± 15%
inhibition at 5 µM [1]: 72 ± 11%
inhibition at 0.5 µM [2]: 4 ± 10%
inhibition at 5 µM [2]: 47%

O=C(N[C@@H](CCCN1CCC(Cc2ccccc2)CC1)C(=O)NCCc1ccccc1)c1cccc(Cl)c1 [Compound 43, (2S)-5-(4-benzylpiperidin-1-yl)-2-[(3-chlorophenyl)formamido]-N-(2-phenylethyl)pentanamide]
Ki [1]: 441 ± 80 nM
Ki [2]: 147 ± 2 nM

O=C(NCCc1ccccc1)[C@H](CCCN1CCC(Cc2ccccc2)CC1)NC(=O)C12CC3CC(CC(C3)C1)C2 [Compound 44, (2S)-2-(adamantan-1-ylformamido)-5-(4-benzylpiperidin-1-yl)-N-(2-phenylethyl)pentanamide]
Ki [1]: 603 ± 139 nM
Ki [2]: 188 ± 6 nM

O=C(C=C(c1ccccc1)c1ccccc1)N[C@@H](CCCN1CCC(Cc2ccccc2)CC1)C(=O)NCCc1ccccc1 [Compound 45, (2S)-5-(4-benzylpiperidin-1-yl)-2-(3,3-diphenylprop-2-enamido)-N-(2-phenylethyl)pentanamide]
inhibition at 0.5 µM [1]: 10 ± 18%
inhibition at 5 µM [1]: 12 ± 2%
inhibition at 0.5 µM [2]: 23 ± 25%
inhibition at 5 µM [2]: 25 ± 19%

O=C(CCCNC(=O)c1ccccc1)N[C@@H](CCCN1CCC(Cc2ccccc2)CC1)C(=O)NCCc1ccccc1 [Compound 46, (2S)-5-(4-benzylpiperidin-1-yl)-N-(2-phenylethyl)-2-[4-(phenylformamido)butanamido]pentanamide]
inhibition at 0.7 µM ([1]; 0.7 µM (footnote e)): 35%
inhibition at 7 µM ([1]; 7 µM (footnote d)): 59%
inhibition at 0.7 µM ([2]; 0.7 µM (footnote e)): 4%
inhibition at 7 µM ([2]; 7 µM (footnote d)): 39%
